The values below come from patent publication US20190022114A1, “METHODS AND COMPOSITIONS FOR REDUCING BODY WEIGHT AND INCREASING GUT MOTILITY” (priority 2016, published 2019).

One data set concerns Wistar rats. Particulars: 13 weeks, cited from earlier work.
A further data set relates to C57BL/6 mice. Briefly: Whole gut transit time (carmine gavage). The settings on record: 0.5 ml 75 mg/ml oral gavage, p value=0.004. It is filed as in vivo, mouse. On the procedure:
D-ribose was administered to C57BL/6 mice of 8 weeks old. Before administering, mice were fasted for 18 hours with free access to water and housed on a mesh plate without bedding. The mice were orally fed with 0.5 ml carmine solution (6% carmine in 0.5% methylcellulose) containing either 75 mg/ml D-ribose or xylose. After oral force gavage, mice were returned to individually housed mesh bottom cages, which were placed on a white sheet. Whole gut transit time is the time taken from carmine meal gavage to the appearance of the first red fecal pellets.

The subject of data set [1] is LEPR (Leptin Receptor) mutants. The data set is described as follows: Weight loss and fat loss effect of D-ribose in mouse obesity model. It is filed as in vivo. Particulars: 48 days. As for the experimental part: Classic obesity model LEPR (Leptin Receptor) mutants (Age 42 day, male) and wild-type FVB strain mice were used in the testing.
D-ribose was feed to mice in D-ribose water solution at concentrations indicated (75 mg/ml and 50 mg/ml). Control animals were feed with water. All animals were fed on normal diet. There was no restriction on the amount of liquid or food consumption.
The liquid and food consumption were measured at 4 day intervals. The actual D-ribose consumption for each animal was calculated based on its liquid intake volume.
Mouse body fat was measured using MiniSpec NMR Analyzer.
P-values were calculated using t-test (unpaired, 2 tails) for data points after 48 days of treatment.
Test results were shown in FIG. 1 and FIG. 2, wherein Square (▪) represents the treatment group, and Circle (●) represents control group. Classic obesity model LEPR (Leptin Receptor) mutants (Age 42 day, male) were used in the testing. The control group was fed with water. Animals were fed on normal diet.

Structures are written as SMILES.

On to `O=C[C@H](O)[C@H](O)[C@H](O)CO` [D-ribose], for which, in the data set on Wistar rats (female rats, 5% in diet), the “NOAEL, females” value is recorded as 4.4 g/kg body weight/day. In the data set on Wistar rats (male rats, 5% in diet), the “NOAEL, males” value is reported as 3.6 g/kg body weight/day. Also, the “no observed adverse effect level (NOAEL), concentration in the diet” value in the data set with Wistar rats (rats, in diet) was 5%. Besides, the “effect at up to 20% of diet” value in the data set on Wistar rats (rats, up to 20% of diet (15.0 and 15.7 g/kg body weight/day males and females)) was “nutritional but not toxicological effect”. In the data set with C57BL/6 mice, the “gut transition time vs xylose control” value is reported as “shortened gut transition time”. Moreover, the “fat gain (body fat measurement)” value in data set [1] (50 mg/ml in water, 20.59 gram/kg/day, data not shown) was “reduced fat gain but not statistically significant”. For the same compound, in data set [1] (50 mg/ml in water, 20.59 gram/kg/day, obese LEPR mutant male mice, p-value 0.001), the “weight gain vs control animals” value is listed as “statistically significantly decreased weight gain”. Further, in data set [1] (75 mg/ml in water, 30.03 gram/kg/day, obese LEPR mutant male mice, p-value 0.00015), the “body fat (NMR) vs control animals” value is given as “fat loss”. Besides, in data set [1] (75 mg/ml in water, 30.03 gram/kg/day, obese LEPR mutant male mice, p-value 0.01), the “body weight vs control animals” value was “statistically significant weight loss”.
